Patent US20100137261A1, “Method for treating aortic stenosis with non-antibacterial tetracycline formulations” (priority 2004, published 2010)
Where a name gives a salt, the structure may show the parent alone. Read-outs that look alike come from different tables or passages of the source.

Experiments:
[1] = Serum levels after oral dosing in humans; details: dose of about 10 to about 20 mg/day
[2] = test system: matrix metalloproteinase-9 (MMP-9) synthesis; test: Stenotic valve tissue culture, gelatinase (MMP-2 and MMP-9) assay; assay type: cell-based
Experimental: The study was conducted using tissue collected from four surgically removed, stenotic tricuspid valves. […] Gelatinases (MMP-2 and MMP-9) from the valve tissue samples were assayed. The analyzed bands were related to the total protein measured using a Bio-Rad DC Protein Assay Kit (Bio-Rad, Hercules, Calif.).

[3] = single dose of two 100 mg minocycline HCl tablets, adult human; cited from earlier work
[4] = 250 mg tetracycline HCl every six hours over a twenty-four hour period; cited from earlier work
[5] = 1 μM, stenotic tricuspid valve tissue incubated for ten days

For `NC(=O)C1=C(O)C[C@@H]2C[C@@H]3Cc4cccc(O)c4C(=O)C3=C(O)[C@]2(O)C1=O` [CMT-3, 6-demethyl-6-deoxy-4-de(dimethylamino)tetracycline], the “serum levels in humans” value [1] was “about 1.0 μg/ml”, the MMP-9 inhibitory effect [2] was “inhibitory effect was seen” and the “comparative efficiency of impact on MMP-9 synthesis” value [2] was “most efficient inhibitor of MMP-9 synthesis”. For the same compound, the “expression of MMP-9 / MMP-9 synthesis” value [2] was “decreased significantly from day 6 to the end of the culture”.
For `CC1c2cccc(O)c2C(=O)C2=C(O)C3(O)C(=O)C(C(N)=O)=C(O)CC3C(O)C21` (stereo not drawn) [CMT-8, 4-dedimethylaminodoxycycline], the MMP-9 inhibitory effect [2, 5] was “inhibitory effect was seen”.
For `CN(C)c1ccc(O)c2c1C[C@H]1C[C@H]3[C@H](N(C)C)C(O)=C(C(N)=O)C(=O)[C@@]3(O)C(O)=C1C2=O` [minocycline HCl], the “minocycline serum level (average)” value [3] is given as 2.24 µg/mL.
For `CN(C)[C@@H]1C(O)=C(C(N)=O)C(=O)[C@@]2(O)C(O)=C3C(=O)c4c(O)cccc4[C@@](C)(O)[C@H]3C[C@@H]12` [tetracycline HCl], the peak plasma concentration [4] is given as “approximately 3 μg/ml”.
For `CN(C)[C@@H]1C(O)=C(C(N)=O)C(=O)[C@@]2(O)C(O)=C3C(=O)c4c(O)cccc4[C@@](C)(O)[C@H]3C[C@@H]12` [tetracycline], the MMP-9 inhibitory effect [2, 5] was “no significant inhibitory effect” and the “expression of MMP-9 / MMP-9 synthesis” value ([2]; 30 μM, stenotic tricuspid valve tissue incubated for ten days) was “had an inhibitory effect on MMP-9 synthesis, but only at the end of the culture”.
